Several values for one entry are separate records, joined by “and”; a condition that tells them apart may be missing. Equal entries are not always repeated. Toxic doses and inconclusive results are not listed. The calls were made as follows: active = survival T/C of 150% or more; inactive = T/C below 125% in these data.
Test system: P388 leukemia ip, CD2F1 mice, survival T/C
Assay: NCI In Vivo Anticancer Drug Screen. Data for tumor model P388 Leukemia (intraperitoneal) in CD2F1 (CDF1) mice
Details: endpoint: median survival time, higher = longer survival
Procedure, shortened: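 Mice carrying the transplanted tumor received test compound or vehicle. Survival was recorded in each group, and the value is the treated-group measurement divided by that of the vehicle-treated control group.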

[1] = dose: 50.0 mg/kg/injection, schedule: Q01DX005 (ip), vehicle: saline with Tween-80
[2] = dose: 100.0 mg/kg/injection, schedule: Q01DX005 (ip), vehicle: saline with Tween-80
[3] = dose: 200.0 mg/kg/injection, schedule: Q01DX005 (ip), vehicle: saline with Tween-80
[4] = dose: 200.0 mg/kg/injection, schedule: Q01DX009 (ip), vehicle: saline with Tween-80
[5] = dose: 50.0 mg/kg/injection, schedule: Q01DX005 (ip), vehicle: Klucel (hydroxypropylcellulose) (HPC)
[6] = dose: 100.0 mg/kg/injection, schedule: Q01DX005 (ip), vehicle: Klucel (hydroxypropylcellulose) (HPC)
[7] = dose: 200.0 mg/kg/injection, schedule: Q01DX005 (ip), vehicle: Klucel (hydroxypropylcellulose) (HPC)
[8] = dose: 50.0 mg/kg/injection, schedule: Q01DX009 (ip), vehicle: Klucel (hydroxypropylcellulose) (HPC)
[9] = dose: 100.0 mg/kg/injection, schedule: Q01DX009 (ip), vehicle: Klucel (hydroxypropylcellulose) (HPC)
[10] = dose: 200.0 mg/kg/injection, schedule: Q01DX009 (ip), vehicle: Klucel (hydroxypropylcellulose) (HPC)

Measured: T/C

CC(C)=CCC(O)C1=CC(=O)c2c(O)ccc(O)c2C1=O (stereo not given)
inactive: dose: 0.5 mg/kg/injection, schedule: Q01DX009 (ip), vehicle: saline with Tween-80 102 % of control | dose: 1.0 mg/kg/injection, schedule: Q01DX009 (ip), vehicle: saline with Tween-80 110 % of control | dose: 1.25 mg/kg/injection, schedule: Q01DX009 (ip), vehicle: Klucel (hydroxypropylcellulose) (HPC) 107 % of control and 109 % of control and 110 % of control | dose: 2.0 mg/kg/injection, schedule: Q01DX009 (ip), vehicle: saline with Tween-80 110 % of control | dose: 2.5 mg/kg/injection, schedule: Q01DX009 (ip), vehicle: Klucel (hydroxypropylcellulose) (HPC) 107 % of control and 108 % of control and 112 % of control | dose: 2.5 mg/kg/injection, schedule: Q01DX009 (ip), vehicle: saline with Tween-80 102 % of control | dose: 5.0 mg/kg/injection, schedule: Q01DX009 (ip), vehicle: Klucel (hydroxypropylcellulose) (HPC) 117 % of control and 120 % of control | dose: 5.0 mg/kg/injection, schedule: Q01DX009 (ip), vehicle: saline with Tween-80 108 % of control | dose: 10.0 mg/kg/injection, schedule: Q01DX009 (ip), vehicle: Klucel (hydroxypropylcellulose) (HPC) 110 % of control and 120 % of control | dose: 15.0 mg/kg/injection, schedule: Q01DX009 (ip), vehicle: saline with Tween-80 100 % of control | dose: 15.0 mg/kg/injection, schedule: Q04DX003 (ip), vehicle: saline with Tween-80 100 % of control | dose: 30.0 mg/kg/injection, schedule: Q01DX009 (ip), vehicle: saline with Tween-80 90 % of control | dose: 30.0 mg/kg/injection, schedule: Q04DX003 (ip), vehicle: saline with Tween-80 109 % of control | [1] 97 % of control | [2] 91 % of control | [3] 99 % of control

CCCCC(NC(=O)c1ccccc1)C(=O)O (stereo not given)
inactive: dose: 50.0 mg/kg/injection, schedule: Q01DX009 (ip), vehicle: saline with Tween-80 92 % of control | dose: 100.0 mg/kg/injection, schedule: Q01DX009 (ip), vehicle: saline with Tween-80 100 % of control | [4] 98 % of control

Cc1ccc(S(=O)(=O)C(CCC(=O)c2ccccc2)(CCC(=O)c2ccccc2)[N+](=O)[O-])cc1
inactive: [5] 91 % of control | [6] 92 % of control | [7] 87 % of control

CCOC(=O)N/N=C/c1ccc[nH]1
inactive: dose: 1.8 mg/kg/injection, schedule: Q01DX005 (ip), vehicle: saline with Tween-80 100 % of control | dose: 3.75 mg/kg/injection, schedule: Q01DX005 (ip), vehicle: saline with Tween-80 100 % of control | dose: 7.5 mg/kg/injection, schedule: Q01DX005 (ip), vehicle: saline with Tween-80 101 % of control and 103 % of control

COc1cccc2c1C(=O)c1c(O)c3c(c(O)c1C2=O)CC(O)(C(=O)CO)CC3OC1CC(N)C(O)C(C)O1 (stereo not given) (tested in a mixture with another compound)
inactive: dose: 6.25 mg/kg/injection, schedule: Q01DX009 (ip), vehicle: other 115 % of control | dose: 25.0 mg/kg/injection, schedule: Q01DX009 (ip), vehicle: other 89 % of control

CN1C(c2ccccc2)CC(=NOCc2ccccc2)CC1c1ccccc1 (stereo not given)
inactive: [1] 98 % of control | [2] 96 % of control | [3] 89 % of control

O=c1c2ccccc2nnn1OCc1ccccc1
inactive: dose: 12.5 mg/kg/injection, schedule: Q01DX009 (ip), vehicle: distilled water + Tween-80 100 % of control | dose: 25.0 mg/kg/injection, schedule: Q01DX009 (ip), vehicle: distilled water + Tween-80 103 % of control | dose: 50.0 mg/kg/injection, schedule: Q01DX009 (ip), vehicle: distilled water + Tween-80 97 % of control | dose: 100.0 mg/kg/injection, schedule: Q01DX009 (ip), vehicle: distilled water + Tween-80 101 % of control | dose: 200.0 mg/kg/injection, schedule: Q01DX009 (ip), vehicle: distilled water + Tween-80 103 % of control

O=C1CC2(CC(=O)NC2=O)C(=O)N1
inactive: dose: 100.0 mg/kg/injection, schedule: Q01DX001 (ip), vehicle: saline 100 % of control | dose: 200.0 mg/kg/injection, schedule: Q01DX001 (ip), vehicle: saline 97 % of control | dose: 400.0 mg/kg/injection, schedule: Q01DX001 (ip), vehicle: saline 92 % of control

O=C1C=C[C@H](O)[C@@]2(CO)O[C@@H]12
inactive: dose: 1.25 mg/kg/injection, schedule: Q04DX002 (ip), vehicle: saline 103 % of control | dose: 2.5 mg/kg/injection, schedule: Q04DX002 (ip), vehicle: saline with Tween-80 114 % of control | dose: 2.5 mg/kg/injection, schedule: Q04DX002 (ip), vehicle: saline 104 % of control

O=c1[nH]c2ccccc2c(=O)n1CCCCCCN1CCN(c2cccc(Cl)c2)CC1
inactive: [8] 96 % of control | [9] 105 % of control | [10] 100 % of control

[CH3][Sn]([CH3])([S]P(=S)(c1ccccc1)c1ccccc1)[S]P(=S)(c1ccccc1)c1ccccc1
inactive: [5] 118 % of control | [6] 117 % of control

CNCCOC(=O)/C=C1/CCC2C(C(O)CC3C(C)(C(=O)OC)CCCC23C)C1C (stereo not given)
inactive: dose: 1.5 mg/kg/injection, schedule: Q01DX009 (ip), vehicle: saline 110 % of control | dose: 3.0 mg/kg/injection, schedule: Q01DX009 (ip), vehicle: saline 102 % of control | dose: 6.0 mg/kg/injection, schedule: Q01DX009 (ip), vehicle: saline 106 % of control

CC1CC(=O)c2cc(-c3ccccc3)oc2C1 (stereo not given)
inactive: [8] 115 % of control | [9] 102 % of control | [10] 97 % of control

Nc1nc(Cl)c2ncn(C3OC(CO)C(O)C3O)c2n1 (stereo not given)
inactive: [4] 98 % of control | dose: 400.0 mg/kg/injection, schedule: Q01DX009 (ip), vehicle: saline with Tween-80 100 % of control

N#Cc1ccc(OC(=O)Nc2ccc(F)cc2)cc1
inactive: dose: 60.0 mg/kg/injection, schedule: Q01DX005 (ip), vehicle: saline with Tween-80 106 % of control | dose: 120.0 mg/kg/injection, schedule: Q01DX005 (ip), vehicle: saline with Tween-80 104 % of control

O=C1CCCC(Br)c2ccccc21 (stereo not given)
inactive: dose: 100.0 mg/kg/injection, schedule: Q01DX009 (ip), vehicle: distilled water + Tween-80 + alcohol 112 % of control | dose: 200.0 mg/kg/injection, schedule: Q01DX009 (ip), vehicle: distilled water + Tween-80 + alcohol 115 % of control | dose: 400.0 mg/kg/injection, schedule: Q01DX009 (ip), vehicle: distilled water + Tween-80 + alcohol 106 % of control

O=C1CSC(c2c(F)cccc2Cl)N1c1ncccn1 (stereo not given)
inactive: dose: 60.0 mg/kg/injection, schedule: Q01DX005 (ip), vehicle: Klucel (hydroxypropylcellulose) (HPC) 109 % of control | dose: 120.0 mg/kg/injection, schedule: Q01DX005 (ip), vehicle: Klucel (hydroxypropylcellulose) (HPC) 111 % of control

CCC1C(=O)OCc2c1cc1n(c2=O)CCC1 (stereo not given)
inactive: dose: 50.0 mg/kg/injection, schedule: Q01DX001 (ip), vehicle: Klucel (hydroxypropylcellulose) (HPC) 123 % of control | dose: 100.0 mg/kg/injection, schedule: Q01DX001 (ip), vehicle: Klucel (hydroxypropylcellulose) (HPC) 106 % of control | dose: 200.0 mg/kg/injection, schedule: Q01DX001 (ip), vehicle: Klucel (hydroxypropylcellulose) (HPC) 100 % of control | dose: 400.0 mg/kg/injection, schedule: Q01DX001 (ip), vehicle: Klucel (hydroxypropylcellulose) (HPC) 108 % of control

CC(NC(=O)C1CC(O)CN1C(=O)CN)C(=O)O (stereo not given)
inactive: [5] 96 % of control | [6] 110 % of control | [7] 94 % of control

CCN(CC)[Si](C)(C)C
inactive: dose: 60.0 mg/kg/injection, schedule: Q01DX005 (ip), vehicle: saline 93 % of control | dose: 120.0 mg/kg/injection, schedule: Q01DX005 (ip), vehicle: saline 94 % of control

Reference: PubChem BioAssay AID330 (DTP/NCI, 2004)
